Reference: patent EP4707284A1, “HETEROCYCLIC COMPOUND AND USE THEREOF” (Otsuka Pharmaceutical Co., Ltd., priority 2023, dated 2024)

Type: physicochemical
Conditions: Tris-hydrochloric acid buffer (pH 7.5) 50 mmol/L, magnesium chloride 5 mmol/L, evaluation compound 1 µmol/L, 37°C, 60 minutes, average of duplicate
Outline: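 Conversion of compounds to brexpiprazole measured in buffer at 37°C, in duplicate: compound added after 3 min pre-incubation of reaction solution, and reaction stopped at 0 or 60 min with acetonitrile/isopropanol (4:1) containing internal standards. Quantified against calibration samples at 0.01, 0.1 and 1 µmol/L.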

| Compound | Concentration of brexpiprazole formed | Concentration of evaluation compound decreased |
| --- | --- | --- |
| CCCCCCOC(=O)OC[N+]1(CCCCOc2ccc3ccc(=O)[nH]c3c2)CCN(c2cccc3sccc23)CC1.[I-] [REX 7, 4-(Benzo[b]thiophen-4-yl)-1-((((hexyloxy)carbonyl)oxy)methyl)-1-(4-((2-oxo-1,2-dihydroquinolin-7-yl)oxy)butyl)piperazin-1-ium iodide, reference compound] | 0.24 µM | 0.27 µM |
| CC(C)(C)OC(=O)CCCC(=O)OCOP(=O)([O-])OC[N+]1(CCCCOc2ccc3ccc(=O)[nH]c3c2)CCN(c2cccc3sccc23)CC1 [EX 69] | 0.00 µM | -0.01 µM |
| O=C(OCCCCCCOP(=O)([O-])OC[N+]1(CCCCOc2ccc3ccc(=O)[nH]c3c2)CCN(c2cccc3sccc23)CC1)c1ccc([N+](=O)[O-])cc1 [EX 85] | 0.00 µM | 0.04 µM |
| CC(=O)Oc1ccccc1C(=O)OCOP(=O)([O-])OC[N+]1(CCCCOc2ccc3ccc(=O)[nH]c3c2)CCN(c2cccc3sccc23)CC1 [EX 80] | 0.00 µM | 0.17 µM |
| COCCC(=O)OCOP(=O)([O-])OC[N+]1(CCCCOc2ccc3ccc(=O)[nH]c3c2)CCN(c2cccc3sccc23)CC1 [EX 28] | -0.01 µM | -0.07 µM |
| COCCOCCOC(=O)OCOP(=O)([O-])OC[N+]1(CCCCOc2ccc3ccc(=O)[nH]c3c2)CCN(c2cccc3sccc23)CC1 [EX 34] | 0.00 µM | 0.01 µM |
| COCCOCOCCCCOP(=O)([O-])OC[N+]1(CCCCOc2ccc3ccc(=O)[nH]c3c2)CCN(c2cccc3sccc23)CC1 [EX 53] | 0.00 µM | 0.06 µM |
| O=c1ccc2ccc(OCCCC[N+]3(COP(=O)([O-])OCC#CCCl)CCN(c4cccc5sccc45)CC3)cc2[nH]1 [EX 63] | 0.00 µM | 0.02 µM |
| CCCCCCCC(=O)OC(C)OP(=O)([O-])OC[N+]1(CCCCOc2ccc3ccc(=O)[nH]c3c2)CCN(c2cccc3sccc23)CC1 (centres unmarked) [EX 26] | 0.00 µM | 0.05 µM |
| CCOCCC(=O)OCOP(=O)([O-])OC[N+]1(CCCCOc2ccc3ccc(=O)[nH]c3c2)CCN(c2cccc3sccc23)CC1 [EX 29] | 0.00 µM | -0.01 µM |
| COCCCOP(=O)([O-])OC[N+]1(CCCCOc2ccc3ccc(=O)[nH]c3c2)CCN(c2cccc3sccc23)CC1 [EX 49] | 0.00 µM | 0.05 µM |
| CC1(C)OCC(COP(=O)([O-])OC[N+]2(CCCCOc3ccc4ccc(=O)[nH]c4c3)CCN(c3cccc4sccc34)CC2)CO1 [EX 55] | 0.00 µM | 0.07 µM |
| COCCCCOP(=O)([O-])OC[N+]1(CCCCOc2ccc3ccc(=O)[nH]c3c2)CCN(c2cccc3sccc23)CC1 [EX 50] | 0.00 µM | 0.01 µM |
| CC(C)(CO)COP(=O)([O-])OC[N+]1(CCCCOc2ccc3ccc(=O)[nH]c3c2)CCN(c2cccc3sccc23)CC1 [EX 48] | 0.00 µM | -0.03 µM |
| CCOC(=O)CC(C)(C)CC(=O)OCOP(=O)([O-])OC[N+]1(CCCCOc2ccc3ccc(=O)[nH]c3c2)CCN(c2cccc3sccc23)CC1 [EX 32] | 0.00 µM | 0.01 µM |
| O=C(OCCCCCCOP(=O)([O-])OC[N+]1(CCCCOc2ccc3ccc(=O)[nH]c3c2)CCN(c2cccc3sccc23)CC1)c1ccccc1 [EX 57] | 0.00 µM | 0.09 µM |
| O=c1ccc2ccc(OCCCC[N+]3(COP(=O)([O-])OCCCOc4ccccc4)CCN(c4cccc5sccc45)CC3)cc2[nH]1 [EX 84] | 0.00 µM | 0.01 µM |
| O=c1ccc2ccc(OCCCC[N+]3(COP(=O)([O-])OCCCCCCCBr)CCN(c4cccc5sccc45)CC3)cc2[nH]1 [EX 64] | 0.00 µM | 0.03 µM |
| CC1(C)OCC(NC(=O)CCCC(=O)OCOP(=O)([O-])OC[N+]2(CCCCOc3ccc4ccc(=O)[nH]c4c3)CCN(c3cccc4sccc34)CC2)CO1 [EX 74] | 0.00 µM | 0.05 µM |
| O=c1ccc2ccc(OCCCC[N+]3(COP(=O)([O-])OCCCCCCO)CCN(c4cccc5sccc45)CC3)cc2[nH]1 [EX 44] | 0.00 µM | -0.05 µM |

Other lines, results leading:

| Concentration of brexpiprazole formed | Concentration of evaluation compound decreased | Compound |
| --- | --- | --- |
| 0.00 µM | 0.00 µM | CCOCCOCCOCCOC(=O)OCOP(=O)([O-])OC[N+]1(CCCCOc2ccc3ccc(=O)[nH]c3c2)CCN(c2cccc3sccc23)CC1 [EX 136] |
| 0.00 µM | 0.11 µM | O=C(OCCCN1CCOCC1)OCOP(=O)([O-])OC[N+]1(CCCCOc2ccc3ccc(=O)[nH]c3c2)CCN(c2cccc3sccc23)CC1 [EX 146] |
| 0.00 µM | 0.02 µM | CCOC(=O)C[C@@H](OP(=O)([O-])OC[N+]1(CCCCOc2ccc3ccc(=O)[nH]c3c2)CCN(c2cccc3sccc23)CC1)C(=O)OCC [EX 111] |
| 0.00 µM | 0.09 µM | CCOCCCOP(=O)([O-])OC[N+]1(CCCCOc2ccc3ccc(=O)[nH]c3c2)CCN(c2cccc3sccc23)CC1 [EX 97] |
| 0.00 µM | 0.13 µM | O=C(CCO)OCOP(=O)([O-])OC[N+]1(CCCCOc2ccc3ccc(=O)[nH]c3c2)CCN(c2cccc3sccc23)CC1 [EX 125] |
| 0.00 µM | 0.14 µM | CC(C)OCCOC(=O)OCOP(=O)([O-])OC[N+]1(CCCCOc2ccc3ccc(=O)[nH]c3c2)CCN(c2cccc3sccc23)CC1 [EX 133] |
| 0.00 µM | 0.11 µM | O=c1ccc2ccc(OCCCC[N+]3(COP(=O)([O-])OCCCCCO)CCN(c4cccc5sccc45)CC3)cc2[nH]1 [EX 92] |
| 0.00 µM | 0.05 µM | O=c1ccc2ccc(OCCCC[N+]3(COP(=O)([O-])OCC(F)F)CCN(c4cccc5sccc45)CC3)cc2[nH]1 [EX 115] |
| 0.00 µM | 0.04 µM | O=C(OCOP(=O)([O-])OC[N+]1(CCCCOc2ccc3ccc(=O)[nH]c3c2)CCN(c2cccc3sccc23)CC1)C1CCOCC1 [EX 127] |
| 0.00 µM | 0.03 µM | O=C(O)CCCCCOC(=O)OCOP(=O)([O-])OC[N+]1(CCCCOc2ccc3ccc(=O)[nH]c3c2)CCN(c2cccc3sccc23)CC1 [EX 145] |
| 0.00 µM | -0.02 µM | CC(C)OC(=O)OCOP(=O)([O-])OC[N+]1(CCCCOc2ccc3ccc(=O)[nH]c3c2)CCN(c2cccc3sccc23)CC1 [EX 130] |
| 0.00 µM | 0.07 µM | CCCCOCCOCCOC(=O)OCOP(=O)([O-])OC[N+]1(CCCCOc2ccc3ccc(=O)[nH]c3c2)CCN(c2cccc3sccc23)CC1 [EX 135] |
| 0.00 µM | 0.16 µM | CC(C)(C)OC(=O)CNP(=O)([O-])OC[N+]1(CCCCOc2ccc3ccc(=O)[nH]c3c2)CCN(c2cccc3sccc23)CC1 [EX 155] |
| 0.00 µM | 0.07 µM | C[C@H](NP(=O)([O-])OC[N+]1(CCCCOc2ccc3ccc(=O)[nH]c3c2)CCN(c2cccc3sccc23)CC1)C(N)=O [EX 158] |
| 0.00 µM | -0.01 µM | O=c1ccc2ccc(OCCCC[N+]3(COP(=O)([O-])OCCOCCO)CCN(c4cccc5sccc45)CC3)cc2[nH]1 [EX 93] |
| 0.00 µM | 0.01 µM | COCCNP(=O)([O-])OC[N+]1(CCCCOc2ccc3ccc(=O)[nH]c3c2)CCN(c2cccc3sccc23)CC1 [EX 152] |
| 0.00 µM | 0.02 µM | O=C(OCOP(=O)([O-])OC[N+]1(CCCCOc2ccc3ccc(=O)[nH]c3c2)CCN(c2cccc3sccc23)CC1)OC1CCOCC1 [EX 141] |
| 0.00 µM | -0.03 µM | CC(C)COP(=O)([O-])OC[N+]1(CCCCOc2ccc3ccc(=O)[nH]c3c2)CCN(c2cccc3sccc23)CC1 [EX 90] |

Same assay, conditions: Tris-hydrochloric acid buffer (pH 7.5), 37°C, 60 minutes

| Compound | stability in the buffer / conversion to brexpiprazole (in words) |
| --- | --- |
| CCCCCCOC(=O)OC[N+]1(CCCCOc2ccc3ccc(=O)[nH]c3c2)CCN(c2cccc3sccc23)CC1.[I-] [REX 7, 4-(Benzo[b]thiophen-4-yl)-1-((((hexyloxy)carbonyl)oxy)methyl)-1-(4-((2-oxo-1,2-dihydroquinolin-7-yl)oxy)butyl)piperazin-1-ium iodide, reference compound] | clearly degraded to brexpiprazole |
